# US5955500A (G. D. Searle & Co., priority 1997, dated 1999)
# Several values for one entry are separate records, joined by “and”; a condition that tells them apart may be missing. Equal values may be shown once. Read-outs that look alike come from different tables or passages of the source.
# Columns and labels:
# [1] = system: isolated working rat heart; settings: S 100 ng/ml plus R 50-950 ng/ml cumulative
# [2] = system: isolated working rat heart
# [3] = for Concentration in octanol / Concentration in water: pH 5, individual replicates
# canine heart = settings: for AH time / Heart rate / Mean arterial pressure: mean ± SE
# Experimental: Fourteen adult mongrel dogs of either sex weighing between 19 and 25 kg were prepared for chronic electrophysiologic investigation by implanting epicardial electrodes and an indwelling aortic catheter. The dogs were fasted overnight and initially anesthetized with halothane on the day of surgery. After tracheal intubation, anesthesia was maintained with isoflurane and oxygen via positive pressure ventilation to keep end tidal carbon dioxide within the normal range. Muscular relaxation was induced by pancuronium. A right thoracotomy was performed in the fifth intercostal space. Three bipolar electrode pairs were sutured to the epicardial surface of the right atrial appendage and on the right and left ventricular apex (FIG. 5). A bipolar electrode was sutured to the right atrium close to the anatomical region of the sinoatrial node. A bipolar plunge electrode was placed into base of the interventricular septum to record a His bundle electrogram. An indwelling arterial catheter was placed into the aorta through the left femoral artery after surgical exposure of the artery at the inner side of the hind limb. All electrode leads were subcutaneously tunneled and exited through the skin between the scapulae. Incisions were closed in anatomic fashion and standard postoperative methods of analgesia were provided with 0.015 mg/kg of buprenorphine (Buprenex®, Reckitt & Colman, Hull, UK) and two times of 25 mg/kg cefazolin (Cefazolin Sodium®, SoloPak Laboratories, Elk Groove Village, Ill.) and dogs were allowed to recover from surgery for a period of seven days prior to testing.
# Electrical signals from the bipolar electrodes, after suitable amplification in a custom built preamplifier (gain 1000), were filtered in a separate custom designed and built common mode rejection amplifier with a bandpass filter of 10-1000 Hz and individually adjusted for signal strength (maximal gain 400). […] Right atrial appendage (RA), right ventricular apex (RVA) and His bundle electrograms (HB) were recorded, simultaneously. […] All measurements of conduction times were made during spontaneous sinus rhythm.
# The His bundle electrode (HBE) was advanced into the base of the interatrial septum from the aortic root. The electrode was advanced from a point located just behind and to the right of the origin of the right coronary artery. The HBE was slowly advanced parallel to the aorta, inferiorly and slightly anteriorly until a well discernible His potential was recorded. AV conduction (AH) interval was measured as the time difference (ms) between the onset of the initial rapid deflection in the RA electrogram to the beginning of the His potential in the HB electrogram. His-ventricular (HV) conduction time interval (ms) was measured from the beginning of the His potential (HBE) to the initial deflection of the QRS complex wave (earliest left ventricular activation) in a simultaneously recorded surface ECG lead II.
# As an indicator of automaticity, sinus node recovery time (SNRT) was determined by pacing the right atrial appendage (30 s at 180 and 200 beats/min at 2 msec pulse duration; 2×threshold). SNRT was measured from the last pacing spike to the first spontaneous atrial activity on the His bundle electrogram after cessation of pacing (ms).
# A timed extrastimulus (S2) was delivered 300 ms after the preceding pacing spike (S1).
# Verapamil was dissolved in 5% dextrose and water ([…]).
# During the postoperative period, each dog was trained to stand quietly in a sling during electrophysiological monitoring. Prior to measurement, electrical signals in each dog were monitored to verify the absence of spontaneous arrhythmias other-than normal respiratory sinus arrhythmias.
# From the resting dog, 5 channel records were obtained at a sampling rate of 1 kHz per channel for 7 min to determine the following conduction intervals: AH, HV, QRS, QT and HR. A corrected QT interval [QTc=QT interval in ms/ (R-R interval in s)^1/2 ] was also calculated.
# [4] = S 100 ng/ml, R 950 ng/ml, R/S ratio 9.5
smiles,measurement,setting,value
COc1ccc(CCN(C)CCCC(C#N)(c2ccc(OC)c(OC)c2)C(C)C)cc1OC (racemic) [R/S (0.5)],"Cardiac output (CO), significance vs predrug",[1],n.s.
same,"Heart rate (HR), significance vs predrug",[1],n.s.
COc1ccc(CCN(C)CCCC(C#N)(c2ccc(OC)c(OC)c2)C(C)C)cc1OC (racemic) [R/S (4.5)],"Heart rate (HR), significance vs predrug",[1],n.s.
same,"Peak systolic pressure (PSP), significance vs predrug",[1],n.s.
COc1ccc(CCN(C)CCCC(C#N)(c2ccc(OC)c(OC)c2)C(C)C)cc1OC (racemic) [R/S (2.0)],"Cardiac output (CO), significance vs predrug",[1],n.s.
same,"Heart rate (HR), significance vs predrug",[1],n.s.
same,"Peak systolic pressure (PSP), significance vs predrug",[1],n.s.
"COc1ccc(CCN(C)CCC[C@@](C#N)(c2ccc(OC)c(OC)c2)C(C)C)cc1OC [S-verapamil, reference compound]","Reduction of peak systolic pressure and cardiac output, in words",[2]; S 100 ng/ml vs R 950 ng/ml,more effective at reducing peak systolic pressure (FIG. 2b) as well as cardiac output
same,Nature of cardiac effect (inotropic / chronotropic),"[2]; S 100 ng/ml, R 950 ng/ml",primarily an inotropic drug
same,"Heart rate (HR), significance vs predrug",[2]; [4],n.s.
same,Concentration in octanol,[3]; listed as 100,5150 ng/mL and 5290 ng/mL and 5530 ng/mL
same,Concentration in water,[3]; listed as 100,4080 ng/mL and 4880 ng/mL and 6220 ng/mL
COc1ccc(CCN(C)CCCC(C#N)(c2ccc(OC)c(OC)c2)C(C)C)cc1OC (racemic) [20/80S],Eutectic compound identification (phase diagram based on Po/w),[3]; pH 5,eutectic compound
same,Concentration in octanol,[3]; listed as 80,4160 ng/mL and 4490 ng/mL and 3810 ng/mL
same,Concentration in water,[3]; listed as 80,6950 ng/mL and 6930 ng/mL and 6920 ng/mL
same,AH time,"canine heart; 0.1 mg/kg i.v., 0 min",88 ± 5 ms
same,Heart rate,"canine heart; 0.1 mg/kg i.v., 0 min",155 ± 13 beats per min
same,Mean arterial pressure,"canine heart; 0.1 mg/kg i.v., 0 min",92 ± 4 mmHg
same,AH time,"canine heart; 0.1 mg/kg i.v., 1 min",100 ± 5 ms
same,Heart rate,"canine heart; 0.1 mg/kg i.v., 1 min",143 ± 11 beats per min
same,Mean arterial pressure,"canine heart; 0.1 mg/kg i.v., 1 min",97 ± 3 mmHg
same,AH time,"canine heart; 0.1 mg/kg i.v., 2 min",106 ± 5 ms
same,Heart rate,"canine heart; 0.1 mg/kg i.v., 2 min",127 ± 10 beats per min
same,Mean arterial pressure,"canine heart; 0.1 mg/kg i.v., 2 min",100 ± 3 mmHg
same,AH time,"canine heart; 0.1 mg/kg i.v., 3 min",107 ± 5 ms
same,Heart rate,"canine heart; 0.1 mg/kg i.v., 3 min",124 ± 9 beats per min
same,Mean arterial pressure,"canine heart; 0.1 mg/kg i.v., 3 min",100 ± 4 mmHg
same,AH time,"canine heart; 0.1 mg/kg i.v., 4 min",111 ± 6 ms
same,Heart rate,"canine heart; 0.1 mg/kg i.v., 4 min",113 ± 11 beats per min
same,Mean arterial pressure,"canine heart; 0.1 mg/kg i.v., 4 min",99 ± 4 mmHg
same,AH time,"canine heart; 0.1 mg/kg i.v., 5 min",112 ± 5 ms
same,Heart rate,"canine heart; 0.1 mg/kg i.v., 5 min",111 ± 8 beats per min
same,Mean arterial pressure,"canine heart; 0.1 mg/kg i.v., 5 min",101 ± 4 mmHg
same,AH time,"canine heart; 0.2 mg/kg i.v., 0 min",110 ± 10 ms
same,Heart rate,"canine heart; 0.2 mg/kg i.v., 0 min",168 ± 10 beats per min
same,Mean arterial pressure,"canine heart; 0.2 mg/kg i.v., 0 min",84 ± 3 mmHg
same,AH time,"canine heart; 0.2 mg/kg i.v., 1 min",126 ± 11 ms
same,Heart rate,"canine heart; 0.2 mg/kg i.v., 1 min",166 ± 9 beats per min
same,Mean arterial pressure,"canine heart; 0.2 mg/kg i.v., 1 min",87 ± 4 mmHg
same,AH time,"canine heart; 0.2 mg/kg i.v., 2 min",133 ± 10 ms
same,Heart rate,"canine heart; 0.2 mg/kg i.v., 2 min",154 ± 8 beats per min
same,Mean arterial pressure,"canine heart; 0.2 mg/kg i.v., 2 min",93 ± 5 mmHg
same,AH time,"canine heart; 0.2 mg/kg i.v., 3 min",140 ± 12 ms
same,Heart rate,"canine heart; 0.2 mg/kg i.v., 3 min",141 ± 11 beats per min
same,Mean arterial pressure,"canine heart; 0.2 mg/kg i.v., 3 min",94 ± 5 mmHg
same,AH time,"canine heart; 0.2 mg/kg i.v., 4 min",127 ± 14 ms
same,Heart rate,"canine heart; 0.2 mg/kg i.v., 4 min",155 ± 16 beats per min
same,Mean arterial pressure,"canine heart; 0.2 mg/kg i.v., 4 min",97 ± 5 mmHg
same,AH time,"canine heart; 0.2 mg/kg i.v., 5 min",130 ± 11 ms
same,Heart rate,"canine heart; 0.2 mg/kg i.v., 5 min",146 ± 4 beats per min
same,Mean arterial pressure,"canine heart; 0.2 mg/kg i.v., 5 min",98 ± 3 mmHg
same,Occurrence of AV conduction block,"canine heart; 0.2 mg/kg i.v., listed as 20R/80S-verapamil",5 animals
same,Occurrence of second and third degree AV conduction block,"canine heart; 0.4 mg/kg i.v., listed as 20R/80S-verapamil",all
same,Recovery of the decrease in MAP,canine heart; compared with any other groups,slower
same,"Peak effect on HR, in words","canine heart; dog, in vivo",drastic increase in HR
same,"QTc interval compared with 100R-verapamil, in words","canine heart; dog, in vivo",significantly increased compared with 100R-verapamil
same,"Interaction between MAP and HR (multiple linear regression), in words",canine heart; increase in HR against drop in MAP,greatest rate of increase in HR as opposed to a drop in MAP
COc1ccc(CCN(C)CCCC(C#N)(c2ccc(OC)c(OC)c2)C(C)C)cc1OC (racemic) [R/S (9.5)],"Effect of mixture on heart rate, in words",[2]; R/S ratio 9.5,additive
same,"Peak systolic pressure (PSP), significance vs predrug",[2]; [4],n.s.
